Laboratory results published in patent US10913732B2, “Furoxans as therapies for neurodegenerative disorders” (The University of Toledo, priority 2016, dated 2021).
“Also recorded” adds a separate entry of the source.

What was measured:
[1] = test system: CREB phosphorylation at Ser-133; assay: In vivo pharmacodynamics, hippocampal pCREB:tCREB by ELISA; conditions: scopolamine treated mice plus 31b 20 or 40 mg/kg ip
[2] = In vivo pharmacokinetics, plasma and forebrain levels by LC-MS/MS; design: species or system mice
Experimental: FIGS. 6A-6C: The ratio of the AUC of the MRM transition for 31b versus 41b was calculated and the resulting values were normalized based on total protein concentration of samples (determined by Bradford assay). N=4 per group. Data shown as SEM, analysis by one way ANOVA with Tukey's post-test. *=p<0.05. Half-life's were calculated based on first order exponential decay.
31b was administered to mice and specimens were processed according to FIG. 4A. Levels of 31b were determined in the plasma and forebrain after intraperitoneal (ip) and oral (po) administration at varying post-administration time points (1, 2, or 12 hr [N=4 per cohort]). […] A deuterated (d^4) analog of 31b, designated 41b, was synthesized for LC-MS studies. Deuterated internal standards are required for absolute quantitation via LC-MS/MS and are desirable for because they have identical physiochemical properties to their non-deuterated kin, but may be distinguished based on molecular weight. Inclusion of 41b allows for control of extraction efficiency, technique proficiency, and instrumentation sensitivity. Extraction methodology and tandem LC-MS/MS parameters (optimized MRM transitions) were developed and validated via extraction of blank brain tissue spiked with 31b and 41b to develop a calibration curve. In this initial evaluation, the appropriate forebrain and plasma samples were spiked with a fixed concentration of 41b, homogenized in extraction buffer, applied to a solid phase resin cartridge, eluted, concentrated, reconstituted, and analyzed via MRM monitoring using LC-MS/MS. […] There were no significant differences in levels of 31b in the brain (B) versus plasma (P), with an average B:P ratio of 1.6 (±0.8). […] Without wishing to be bound by theory, it is believed that low oral bioavailability of 31b is the result of rapid 1st pass metabolism, since the microsomal stability studies indicate poor hepatic stability. The use of common dosage form strategies likely results in improved oral bioavailability. Alternative administration routes, including intranasal, are also believed to result in high brain bioavailability based on the relativity high lipophilicity of the embodiments tested. […] Moreover, the physiochemical properties proposed as being appropriate for CNS drugs are appropriate. The long residence time of the furoxan (visible in the brain after 12 hr), indicates an ideal scenario for daily dosing.
Forebrain tissue (˜30 mg) was homogenized in 1 ml of tissue extraction buffer (Invitrogen) containing a protease inhibitor cocktail (PIC). 100 μL of the resulting homogenate (or 100 μL of plasma) was spiked with 2% Formic acid (200 μL, containing 41b [0.5 μM]—internal standard) and vortexed for 1 min. The mixture was applied to an Evolute Express ABN column (Biotage) and filtered through via vacuum filtration. The matrix was washed with dH2O (1 mL) and analytes eluted with MeOH (1 mL). The resulting extract was evaporated to dryness by passing over air and reconstituted in ACN/dH2O (100 μL). A 10 μL injection was analyzed by LC-MS/MS. Analysis was carried out on a Shimadzu Nexera XR HPLC coupled with a Shimadzu 8050 triple quadrupole mass spectrometer. LC utilized a Kinetex-core column (Phenomenex): 2.6 um C18 100 A, 100×4.6 mm. HPLC Method: solvents, H2O [0.1% FA]—solvent A; MeOH [0.1% FA]—solvent B; flow rate 1.0 mL/min (utilized Tsplitter, mass spectrometer effective flow rate 0.4 mL/min). Gradient: t=2 min, 5% B; t=6 min, 95% B; t=7.0 min, 95% B; t=7.01, 5% B. Stop time 10 min. Diverter valve was utilized and eluent only averted to MS from 5 min-8 min. Quantity was determined based on the AUC of the internal standard versus the AUC of the analyte peak.

[3] = test system: Mice; assay: Permanent middle carotid artery occlusion (pMCAO) model of stroke; type: in vivo
Experimental: FIGS. 9A-9E: Evaluation of the furoxan 31b. […] Latency to fall was normalized to 4 h post-infarct mean for each group and is represented as mean and s.e.m. (n=12). Analyzed using one way ANOVA analysis with Tukey's post-hoc test. […] Each of the seven tests included in the 28-point NDS was graded from 0-4, with higher scores indicating severe deficits (n=12). Compared using unpaired t-test. […] Compared using unpaired t-test. For all data, *=p<0.05, **=p<0.01, ***=p<0.001.
31b (20 mg/kg, i.p.) was administered once daily for 6 days beginning 12 hr after permanent MCAO (pMCAO, FIG. 9A). pMCAO was chosen rather than 2-VO because pMCAO is much simpler and more reliable (pMCAO-no loss of animals vs 2-VO˜30% lethality 7 days post-op). Ultimately, this model allowed for the provision of evidence of neuroprotective efficacy and effect on BDNF.
Locomotor activity was evaluated by means of a rotarod task by a person blinded to the treatment groups. Mice were placed on a horizontal rod (Columbus Instruments, OH) that was made to rotate at 1 rpm with an acceleration rate of 1 rpm every 10 s until the animal fell from the rod. Each animal was tested three times per trial. All the animals were trained on the rotarod assembly prior to surgery. The duration for which each animal was able to stay on the accelerating rod was recorded as the latency to fall and registered manually. Locomotor activity was monitored 4 h before, 24 h, postsurgery and 7 days after p-MCAO surgery Grip strength was evaluated by holding the mice by tails and placing their forelimbs on a specially designed pull bar assemblies (Grip strength meter, Columbus Instruments, OH). […] Each animal was tested three times per trial at 4 h before, 2 and 7 days after p-MCAO surgery. NDS were evaluated by an optimized 28-point score pattern. A person blinded to the treatment evaluated NDS 7 days after p-MCAO; the evaluation included both sensory and motor deficits, such as body symmetry, gait, climbing, circling behavior, front limb symmetry, compulsory circling, and whisker response. Each of the seven tests included in the 28-point NDS was graded from 0 to 4, with higher scores indicating severe deficits. Animals from all the groups were euthanized 7 days after p-MCAO. Brains were dissected out and sliced into five 2-mm-thick coronal sections before incubating in 1% triphenyltetrazolium chloride (TTC) (Sigma Co., MI). The infarct area was estimated from five slices of each brain, measuring rostral and caudal sides of each individual slice in conjunction with the thickness and expressed as a percentage of the volume of the contralateral hemisphere. A person blinded to the treatment groups measured the infarct volume with the help of ImageJ software provided by NIH.

[4] = 20 mg/kg i.p. once daily for 6 days beginning 12 hr after pMCAO, day 7

**Q.** Which results are given for `CC1CCN(Cc2no[n+]([O-])c2-c2ccc(F)cc2)CC1` [31b]?
**A.** Hippocampal pCREB:tCREB ratio [1]: trends toward reversal; Amounts in ip-treated mice compared to oral gavage ([2]; mice): significantly higher amounts in ip-treated mice; Levels in plasma and forebrain after 12 h ([2]; mice, ip and po): detectable levels; Oral bioavailability ([2]; mice, po): low; Kp ([2]; mouse, forebrain versus plasma, other: intraperitoneal (ip) and oral (po), averaged together, mice, read-out: Average B:P ratio (brain versus plasma)): 1.6; Brain penetration ([2]; mouse, in vivo): significant brain penetration; half-life ([2]; mouse, plasma and forebrain, intraperitoneal and oral, mice, ip and po, first order exponential decay, read-out: In vivo t1/2 for brain and plasma): 0.833 to 1.83 h; Infarct volume reduction ([3]; 20 mg/kg i.p. once daily for 6 days after pMCAO, TTC staining, p=0.11): ~30%; BDNF levels relative to control animals ([3]; 20 mg/kg i.p. once daily for 6 days after pMCAO, WB, p=0.07): double the levels of control animals; Behavioral functional recovery, neurologic deficit scoring (NDS) [3, 4]: reverses neurologic deficit; also recorded: significant improvement; Behavioral functional recovery, rotarod [3, 4]: improves rotarod performance; also recorded: significant improvement
